US20240425491A1, “HETEROARYL COMPOUNDS USEFUL IN THE TREATMENT OF COGNITIVE DISORDERS” (University College Cardiff Consultants Limited, priority 2021, published 2024)

How the values were obtained:
[1] = molecular target: T1, human α5β3γ2L GABAA receptors in HEK293 cells (Homo sapiens, UniProt P18507+P31644); test: In vitro electrophysiological recording assay (α5-GABAAR relative efficacy), SyncroPatch; assay type: cell-based; conditions: Conc 0.1 μM; GABA EC10-20
T1 construct: expressed in transfected cells
Summary of the method: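 HEK293 cells stably expressing the receptor, automated whole-cell patch clamp at −80 mV, room temperature (20-22° C). Compound pre-incubated 1-2 min, then co-applied with GABA EC10-20; % change in peak current vs GABA alone (leak-subtracted). Tested generally at ≥100× Ki and normalised to DMCM efficacy as relative efficacy.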

[2] = molecular target: T2, human α5β3γ2 GABAARs in mouse L(tk−) cells (Homo sapiens, UniProt P18507+P31644); test: In vitro electrophysiological recording assay (α5-GABAAR relative efficacy), QPatch; assay type: cell-based
T2 construct: expressed in transfected cells; host or cells: mouse L(tk−) cells, dexamethasone-inducible vector pMSGneo
Summary of the method: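 Whole-cell QPatch recordings at 20-22° C, −65 mV holding, in dexamethasone-induced (1 μM, 24 h) L(tk−) cells. Compound pre-applied ≥1 min, then co-applied with GABA EC10-20; percentage change in leak-corrected peak current, taken at ≥100× Ki, normalised to DMCM efficacy; 0.1% DMSO final.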

T2 sequence (P31644 32-462): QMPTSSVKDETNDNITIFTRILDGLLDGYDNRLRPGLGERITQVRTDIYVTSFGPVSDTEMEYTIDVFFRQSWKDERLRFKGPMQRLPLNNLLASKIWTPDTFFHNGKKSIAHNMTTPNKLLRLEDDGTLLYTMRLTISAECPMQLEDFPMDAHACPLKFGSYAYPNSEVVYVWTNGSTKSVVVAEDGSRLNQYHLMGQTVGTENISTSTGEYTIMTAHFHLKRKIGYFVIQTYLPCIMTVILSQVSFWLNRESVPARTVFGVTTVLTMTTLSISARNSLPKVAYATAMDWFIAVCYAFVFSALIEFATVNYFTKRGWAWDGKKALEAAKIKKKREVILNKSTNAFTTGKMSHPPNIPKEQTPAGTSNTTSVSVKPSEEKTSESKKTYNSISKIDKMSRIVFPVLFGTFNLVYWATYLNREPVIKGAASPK
T2 sequence (P28472 26-473 partner): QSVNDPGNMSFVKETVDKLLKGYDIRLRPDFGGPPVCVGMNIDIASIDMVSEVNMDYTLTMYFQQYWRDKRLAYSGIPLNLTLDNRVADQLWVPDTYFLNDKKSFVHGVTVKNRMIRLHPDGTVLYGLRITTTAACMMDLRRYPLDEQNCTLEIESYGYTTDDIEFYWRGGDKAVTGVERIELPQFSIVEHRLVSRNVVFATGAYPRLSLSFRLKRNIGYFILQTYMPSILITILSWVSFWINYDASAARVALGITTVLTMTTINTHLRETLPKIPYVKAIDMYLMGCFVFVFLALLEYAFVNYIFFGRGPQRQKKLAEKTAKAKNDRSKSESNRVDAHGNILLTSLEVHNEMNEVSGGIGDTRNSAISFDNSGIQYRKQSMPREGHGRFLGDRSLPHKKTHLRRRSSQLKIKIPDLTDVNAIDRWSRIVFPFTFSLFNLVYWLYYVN
T2 sequence (P18507 40-475): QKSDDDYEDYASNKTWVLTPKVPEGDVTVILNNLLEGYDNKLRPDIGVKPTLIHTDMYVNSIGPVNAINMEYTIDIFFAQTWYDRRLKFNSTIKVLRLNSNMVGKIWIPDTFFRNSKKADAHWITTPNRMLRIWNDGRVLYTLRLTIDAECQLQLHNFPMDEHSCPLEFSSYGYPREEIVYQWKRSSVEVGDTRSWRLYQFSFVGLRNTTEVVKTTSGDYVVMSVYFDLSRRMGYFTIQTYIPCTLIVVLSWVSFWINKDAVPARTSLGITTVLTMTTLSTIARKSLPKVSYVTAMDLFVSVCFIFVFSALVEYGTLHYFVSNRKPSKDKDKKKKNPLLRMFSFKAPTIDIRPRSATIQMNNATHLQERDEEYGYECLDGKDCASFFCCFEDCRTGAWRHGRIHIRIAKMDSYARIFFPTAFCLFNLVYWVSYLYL
T1 sequence (P31644 32-462): as the sequence (P31644 32-462) above
T1 sequence (P28472 26-473 partner): as the sequence (P28472 26-473 partner) above
T1 sequence (P18507 40-475): as the sequence (P18507 40-475) above

COc1nc(-n2ccnc2)ccc1NC(=O)c1c(-c2ccccc2)noc1C [Example 1, N-(6-Imidazol-1-yl-2-methoxy-3-pyridyl)-5-methyl-3-phenyl-isoxazole-4-carboxamide]
α5-GABAAR Relative Efficacy (to DMCM), SyncroPatch [1]: −1.11 | GABA-elicited whole-cell current in the presence of compound ([2]; 1 μM, QPatch, same cell before and after addition, FIG. 1): smaller current | α5-GABAAR Relative Efficacy (to DMCM), Qpatch ([2]; Conc 1 μM, GABA EC10-20): −0.91
